These results are taken from patent publication US20250326741A1, “GLUCOSE-DEPENDENT INSULINOTROPIC POLYPEPTIDE RECEPTOR ANTAGONISTS AND USES THEREOF” (Pfizer Inc., priority 2024, published 2025).

The term IC50 denotes the midpoint of a concentration-inhibition curve. A lower IC50 goes with greater potency.

Structures are written as SMILES.

The first assay has as its target T1, human Glucose-dependent Insulinotropic Polypeptide Receptor (hGIPR) (Homo sapiens, UniProt P48546).
T1 sequence (P48546 22-466): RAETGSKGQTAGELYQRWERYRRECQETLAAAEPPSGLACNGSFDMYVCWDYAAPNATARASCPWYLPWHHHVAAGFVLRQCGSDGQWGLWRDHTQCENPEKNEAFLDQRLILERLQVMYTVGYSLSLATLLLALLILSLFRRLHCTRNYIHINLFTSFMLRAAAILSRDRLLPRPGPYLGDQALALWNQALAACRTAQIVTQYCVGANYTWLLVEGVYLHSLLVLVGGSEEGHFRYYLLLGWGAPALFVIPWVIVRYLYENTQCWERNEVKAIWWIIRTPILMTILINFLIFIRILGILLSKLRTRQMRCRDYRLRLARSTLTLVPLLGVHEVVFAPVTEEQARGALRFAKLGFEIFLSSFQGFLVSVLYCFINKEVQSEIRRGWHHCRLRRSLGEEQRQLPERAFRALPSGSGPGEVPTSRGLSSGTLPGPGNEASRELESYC
As to the kind of experiment: Functional in vitro GIPR antagonist potency assay (intracellular cAMP, HTRF, hGIP stimulation at EC80). In kind it is cell-based.
Conditions: not given
How it is done:
Example AA. Functional In Vitro GIPR Antagonist Potency Assay
The functional in vitro antagonist potency for test compounds was determined by monitoring intracellular cyclic adenosine monophosphate (cAMP) levels in Chinese hamster ovary (CHO)—K1 cells stably expressing the human Glucose-dependent Insulinotropic Polypeptide Receptor (hGIPR). Following agonist activation, hGIPR associates with the G-protein complex causing the Gas subunit to exchange bound guanosine diphosphate (GDP) for guanosine triphosphate (GTP), followed by dissociation of the Gas-GTP complex. The activated Gas subunit can couple to downstream effectors to regulate the levels of second messengers or cAMP within the cell. Thereby, determination of intracellular cAMP levels allows for pharmacological characterization. Intracellular cAMP levels are quantitated using a homogenous assay utilizing the Homogeneous Time Resolved Fluorescence (HTRF) technology from Perkin Elmer. The method is a competitive immunoassay between native cAMP produced by the cells and cAMP labelled with the acceptor dye, d2. The two entities compete for binding to a monoclonal anti-cAMP antibody labeled with cryptate. The specific signal is inversely proportional to the concentration of cAMP in the cells.
Test compounds were solubilized to a concentration of 30 mM in 100% dimethyl sulfoxide (DMSO). An 11-point dilution series using 1 in 3.162-fold serial dilutions was created in 100% DMSO with a top concentration of 8 mM. The serially diluted compound was spotted with an Echo Acoustic liquid handler (Beckman Coulter) into a 384-well assay plate (Corning, Cat No. 3824) at 50 nL/well with duplicate points at each concentration, at a 200× final assay concentration (FAC). The final compound concentration range in the assay was 40 μM to […], with a final DMSO concentration of 0.5%.
Frozen assay-ready vials (at 1×10^7 cells/vial) of CHO-K1 cells stably expressing the Gs-coupled human GIPR receptor (Eurofins, DiscoverX, Cat No. 95-0146C2) were thawed, counted, and resuspended in assay buffer consisting of Hank's Balanced Salt Solution (HBSS, Lonza Cat No. 10-527) containing 20 mM (4-(2-hydroxyethyl)-1-piperazineethanesulfonic acid (HEPES, Lonza, Cat No. 17-737E), 0.1% bovine serum albumin (BSA, Sigma, Cat No. A7979), and 200 μM 3-isobutyl-1-methylxanthine (IBMX, Sigma, Cat No. 15879) at a density of 4×10^5 cells/mL. Cells were added to assay plate (5 μL/well of 4×10^5 cells/mL stock for 2,000 cells/well final) containing 50 nL of 200×FAC test compound, and incubated at 37° C. (95% O2: 5% CO2) for 2 hours, with micro-clime lids (Labcyte, Cat No. LLS-0310). Following the 2-hour cell and compound incubation, a stimulation mix comprised of hGIPR agonist human glucose-dependent insulinotropic polypeptide (hGIP, full length, Sigma Cat No. G2269) in assay buffer/0.1% DMSO was added to the assay plate (5 μL/well) at an estimated EC80 FAC (based on previous hGIP agonist curves) and incubated for another 30 minutes with micro-clime lids at 37° C. (95% O2: 5% CO2), after which intracellular cAMP levels were quantified as per Perkin Elmer's protocol (5 μL of d2 and then 5 μL cryptate, incubated for 1 hour at room temperature). Emission spectra of samples were measured on a Pherastar plate reader (BMG Labtech Inc) using a HTRF protocol (excitation, 320 nm; emission, 665 nm/620 nm).
(95% O2: 5% CO2), with a micro-clime lid. Following the 2-hour cell and DMSO incubation, a hGIP concentration response curve at 2×FAC (12-point curve using 1 in 3 serial dilutions, with triplicate points at each concentration, 100 nM final top concentration) in assay buffer/1% DMSO was added (5 μL/well) and incubated for a further 30 minutes with a micro-clime lid at 37° C. (95% O2: 5% CO2), after which intracellular cAMP levels were quantified and samples measured as described previously. Experiments passed quality control if the agonist concentration used for stimulation fell between the on-the-day EC50-EC90. […]
For orientation: In TR-FRET formats the signal depends on donor and acceptor labels being close together.
`Cc1cc(-n2ccc(NC(=O)[C@H]3CCCN3C(=O)Nc3ccc(C(F)(F)F)c(F)c3)n2)ccc1C(=O)O` [Example 9, 4-{3-[(1-{[3-Fluoro-4-(trifluoromethyl)phenyl]carbamoyl}-D-prolyl)amino]-1H-pyrazol-1-yl}-2-methylbenzoic Acid] came in with an IC50 of 19 nM. Same read-out and setting: the value for `Cc1cc(-n2ccc(NC(=O)[C@H]3CCCN3C(=O)Nc3ccc(OC(F)(F)F)cc3)n2)ccc1C(=O)O` [Example 11, 2-Methyl-4-{3-[(1-{[4-(trifluoromethoxy)phenyl]carbamoyl}-D-prolyl)amino]-1H-pyrazol-1-yl}benzoic Acid] was 11 nM.

Still in this assay, the particulars now being: geometric mean; CHO-K1 cells stably expressing human GIPR, cAMP after hGIP stimulation at EC80.
In turn, `CC(C)c1ccc(NC(=O)N2CCC[C@@H]2C(=O)Nc2ccn(-c3ccc(C(=O)O)cn3)n2)cc1` [Example 21, 6-{3-[(1-{[4-(propan-2-yl)phenyl]carbamoyl}-D-prolyl)amino]-1H-pyrazol-1-yl}pyridine-3-carboxylic acid] gave an IC50 of 50 nM.

In turn, `Cc1cc(-n2ccc(NC(=O)[C@H]3CCCN3C(=O)Nc3ccc(C(F)(F)F)cc3)n2)ccc1C(N)=O` [Example 49] returned an IC50 of 240 nM. Same read-out and setting: in the case of `Cc1cc(-n2ccc(NC(=O)[C@H]3CCCN3C(=O)Nc3ccc(Cl)c(Cl)c3)n2)ccc1C(=O)O` [Example 37, 4-[3-({1-[(3,4-dichlorophenyl)carbamoyl]-D-prolyl}amino)-1H-pyrazol-1-yl]-2-methylbenzoic acid] it was 94 nM. Same read-out and setting: in the case of `Cc1c(C(=O)O)ccc(-n2ccc(NC(=O)[C@H]3CCCN3C(=O)Nc3ccc(C(F)(F)F)cc3)n2)c1F` [Example 66, 3-fluoro-2-methyl-4-{3-[(1-{[4-(trifluoromethyl)phenyl]carbamoyl}-D-prolyl)amino]-1H-pyrazol-1-yl}benzoic acid] it was 54 nM; in that of `Cc1cc(-n2ccc(NC(=O)[C@H]3CCCN3C(=O)Nc3ccc(C(F)(F)F)c(Cl)c3)n2)ccc1C(=O)O` [Example 52, 4-{3-[(1-{[3-chloro-4-(trifluoromethyl)phenyl]carbamoyl}-D-prolyl)amino]-1H-pyrazol-1-yl}-2-methylbenzoic acid], 13 nM; in that of `Cc1cc(-n2ccc(NC(=O)[C@H]3CCCN3C(=O)Nc3ccc(OC(F)F)cc3)n2)ccc1C(=O)O` [Example 56, 4-{3-[(1-{[4-(difluoromethoxy)phenyl]carbamoyl}-D-prolyl)amino]-1H-pyrazol-1-yl}-2-methylbenzoic acid], 310 nM. Same read-out and setting: in the case of `Cc1cc(-n2ccc(NC(=O)[C@H]3CCCN3C(=O)CCc3ccc(C(F)(F)F)cc3)n2)ccc1C(=O)O` [Example 18, 2-Methyl-4-{3-[(1-{3-[4-(trifluoromethyl)phenyl]propanoyl}-D-prolyl)amino]-1H-pyrazol-1-yl}benzoic Acid] it was 250 nM. As to `O=C(Nc1ccn(-c2cc(F)c(O)c(F)c2)n1)[C@H]1CCCN1C(=O)Nc1ccc(C(F)(F)F)cc1` [Example 54], inhibition was half-maximal at 12 nM (IC50). The compound `CC(C)c1ccc(NC(=O)N2CCC[C@@H]2C(=O)Nc2ccn(-c3cc(F)c(O)c(F)c3)n2)cc1` [Example 43] came in with an IC50 of 5.3 nM. `CC(C)c1ccc(NC(=O)N2CCC[C@@H]2C(=O)Nc2ccn(-c3ccc(C(N)=O)cc3)n2)cc1` [Example 35] yielded an IC50 of 120 nM.

As for `Cc1cc(-n2ccc(NC(=O)[C@H]3CCCN3C(=O)NCc3ccc(C(F)(F)F)c(F)c3)n2)ccc1C(=O)O` [Example 48, 4-(3-{[1-{{[3-fluoro-4-(trifluoromethyl)phenyl]methyl}carbamoyl)-D-prolyl]amino}-1H-pyrazol-1-yl)-2-methylbenzoic acid], the IC50 was 150 nM.

`Cc1cc(C(=O)O)ccc1-n1ccc(NC(=O)[C@H]2CCCN2C(=O)Nc2ccc(C(C)C)cc2)n1` [Example 25, 3-methyl-4-{3-[(1-{[4-(propan-2-yl)phenyl]carbamoyl}-D-prolyl)amino]-1H-pyrazol-1-yl}benzoic acid] yielded an IC50 of 98 nM. As to `CC(C)c1ccc(NC(=O)N2CCC[C@@H]2C(=O)Nc2ccn(-c3cc(F)c(O)c(F)c3)n2)cc1F` [Example 14, (2R)—N^2-[1-(3,5-Difluoro-4-hydroxyphenyl)-1H-pyrazol-3-yl]-N^1-[3-fluoro-4-(propan-2-yl)phenyl]pyrrolidine-1,2-dicarboxamide], the half-maximal inhibitory concentration (IC50) came to 7.2 nM. Still for that read-out and setting: the value for `CC(C)c1ccc(NC(=O)N2CCC[C@@H]2C(=O)Nc2ccn(-c3ccc(C(N)=O)cc3F)n2)cc1` [Example 36] was 42 nM; that for `CC(C)c1ccc(NC(=O)N2CCC[C@@H]2C(=O)Nc2ccn(-c3ccc(C(=O)O)cc3)n2)cc1` [Example 22, 4-{3-[(1-{[4-(propan-2-yl)phenyl]carbamoyl}-D-prolyl)amino]-1H-pyrazol-1-yl}benzoic acid] was 22 nM; that for `Cc1cc(-n2ccc(NC(=O)[C@H]3CCCN3C(=O)Nc3ccc(C4CC4)c(C)c3)n2)ccc1C(=O)O` [Example 39, 4-[3-({1-[(4-cyclopropyl-3-methylphenyl)carbamoyl]-D-prolyl}amino)-1H-pyrazol-1-yl]-2-methylbenzoic acid] was 27 nM. The same measure, in the same setting: the value for `Cc1cc(NC(=O)N2CCC[C@@H]2C(=O)Nc2ccn(-c3ccc(C(=O)O)cc3)n2)ncc1C(C)C` [Example 30, 4-{3-[(1-{[4-methyl-5-(propan-2-yl)pyridin-2-yl]carbamoyl}-D-prolyl)amino]-1H-pyrazol-1-yl}benzoic acid] was 250 nM; that for `Cc1cc(-n2ccc(NC(=O)[C@H]3CCCN3C(=O)Nc3ccc(C4CC4)c(C(F)(F)F)c3)n2)ccc1C(=O)O` [Example 53, 4-{3-[(1-{[4-cyclopropyl-3-(trifluoromethyl)phenyl]carbamoyl}-D-prolyl)amino]-1H-pyrazol-1-yl}-2-methylbenzoic acid] was 13 nM. Same read-out and setting: in the case of `Cc1cc(NC(=O)N2CCC[C@@H]2C(=O)Nc2ccn(-c3ccc(C(=O)O)cc3)n2)ccc1C(C)C` [Example 26, 4-{3-[(1-{[3-methyl-4-(propan-2-yl)phenyl]carbamoyl}-D-prolyl)amino]-1H-pyrazol-1-yl}benzoic acid] it was 64 nM; in that of `Cc1cc(-n2ccc(NC(=O)[C@H]3CCCN3C(=O)CNc3ccc(C(F)(F)F)cc3)n2)ccc1C(=O)O` [Example 19, N-[4-(Trifluoromethyl)phenyl]glycyl-N-[1-(4-carboxy-3-methylphenyl)-1H-pyrazol-3-yl]-D-prolinamide], 78 nM. Compound `CC(C)c1ccc(NC(=O)N2CCC[C@@H]2C(=O)Nc2ccn(-c3ccc(C(N)=O)cc3)n2)cc1F` [Example 57] gave an IC50 of 120 nM.

In the case of `Cc1c(C(=O)O)ccc(-n2ccc(NC(=O)[C@H]3CCCN3C(=O)Nc3ccc(OC(F)(F)F)cc3)n2)c1F` [Example 62, 3-fluoro-2-methyl-4-{3-[(1-{[4-(trifluoromethoxy)phenyl]carbamoyl}-D-prolyl)amino]-1H-pyrazol-1-yl}benzoic acid], the IC50 came to 7.6 nM.
